# Test results from patent EP4663204A1, “COMPOUNDS USEFUL FOR THE MODULATION OF THE ACTIVITY OF STING” (Sulis Therapeutics ApS, priority 2024, dated 2025).
# “And” between values parts separate entries of the source, which are not always exact repeats. Equal entries are not always repeated. “Also recorded” adds a separate entry of the source.
# What was measured:
# Format in all cases: cell-based
# Parameters in all cases: To assess STING degradation and recovery in human foreskin fibroblasts HFF-1 cells; host or cells: HFF-1 human foreskin fibroblasts
# STING [1] = target: T1, STING (Homo sapiens, UniProt Q86WV6); assay: Western Blot of diABZI-induced STING activation in primary human skin fibroblasts (Figure 9); conditions: 5 µM; for LC3B lipidation / P-TBK1: 0.3 µM diABZI; for P-TBK1 / P-STING: versus diABZI c3 only; for P-STING: before (-2h, -1h), simultaneously with, or 15 minutes after 0.3 µM diABZI
# T1 sequence (Q86WV6 whole entry, the tested form may be a part): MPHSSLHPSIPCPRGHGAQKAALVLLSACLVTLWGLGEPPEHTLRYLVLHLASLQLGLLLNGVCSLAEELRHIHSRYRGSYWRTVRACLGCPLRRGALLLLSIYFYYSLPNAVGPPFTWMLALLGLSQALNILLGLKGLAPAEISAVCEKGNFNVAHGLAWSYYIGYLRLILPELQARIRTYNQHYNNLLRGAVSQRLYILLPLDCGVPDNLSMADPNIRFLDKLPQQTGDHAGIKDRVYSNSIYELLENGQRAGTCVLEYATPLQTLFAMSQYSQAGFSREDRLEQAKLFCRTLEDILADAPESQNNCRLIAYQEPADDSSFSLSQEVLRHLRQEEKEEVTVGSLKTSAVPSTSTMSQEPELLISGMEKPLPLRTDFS
# Protocol: (§1) To assess whether S1 STING ligands inhibit STING activation, primary human skin fibroblasts (Figure 9) or HFF-1 cells (Figure 10) were treated with various compounds which comprise only an S1 ligand domain and a Linker domain before undergoing Western Blot analysis as described below.
# (§2) Cell culture methods as described above for primary human skin fibroblast and HFF-1 cells were used in the current experiments. Methods as described above for H596, H1650 and HaCat cells were applied for cell lysis and western blotting.
# Cells were incubated with A9 or A11 for 1 or 2 hours before addition of diABZI c3, treated with test compound and diABZI c3 simultaneously, or treated with A9 or A11 after 15 minutes incubation with diABZI c3. As a control, cells were also treated with diABZI c3 alone.
# STING [2] = target: T1, STING; assay: Inhibition of STING-agonist-induced IFN-β and CXCL10 release (Figure 11); conditions: for IFN media concentration: Figure 11A; for secretion of Functional Type I IFN / secretion of CXCL10: human skin fibroblasts, 5 µM, 0.3 µM diABZI; for secretion of Functional Type I IFN: Figure 11 (A); for secretion of CXCL10: Figure 11 (B); for CXCL10 media concentration: Figure 11B
# Protocol: HFF-1 cells were assessed for inhibition of STING-agonist-induced IFN-β and CXCL10 release in cells treated with Compounds A9 and A11.
# HFF-1 cells were cultured as described in Example 7 above except that cells were seeded in a 24-well plate at 30,000 cells/well. […]
# STING [3] = target: T1, STING; assay: Western Blot of diABZI-induced STING activation in HFF-1 cells (Figure 10A); conditions: 5 µM for 15 min, then 300 nM diABZI for 2 h or 5 h, versus diABZI c3 alone
# Protocol: as §1, §2
# In Figure 10A, HFF-1 cells were treated with 5 µM of compounds A11, A25, A26, or A30, or 0.5 µM STING antagonist control for 15 min followed prior to addition of 300 nM diABZI and incubation for 2 h or 5 h. The cells were lysed and analysed on WB. As additional controls, cells were left untreated (UT), treated with Lipofectamine (Lipo control) or with compounds A26 or A30 as single agent. […]
# STING [4] = target: T1, STING; assay: Western Blot of cGAMP-induced STING activation in HFF-1 cells (Figure 10B); conditions: 5 µM for 15 min, then 8 µg/mL cGAMP for 2 h or 5 h, versus cGAMP alone
# Protocol: as §1, §2
# (§3) In Figure 10B, similar experiments were performed as for Figure 10A, except that cells were activated with 8 µg/mL cGAMP instead of diABZI c3. In addition, the controls used in this set of experiments was A11, A25, A26 and A30 as a single agent with no cGAMP activation.
# STING [5] = target: T1, STING; assay: Western Blot of STING agonist activity of compounds as single agent in HFF-1 cells; conditions: compound as single agent, no activation
# Protocol: S1 is a STING ligand. […] Any standard method known in the art may be used to determine STING agonist activity. For example, STING agonist activity (or lack thereof) can be measured as described in Examples 11 and/or Example 12. For example, following the method described in Example 11, cells may be incubated with a compound comprising a S1 STING ligand. The cells may be lysed and Western Blotting performed. Western blots may be probed for phospho-STING and/or phospho-TBK1. Cells incubated with STING ligands which are not agonists will not result in detectable phospho-STING or phospho-TBK1 using the methods outlined above and in Examples 11. In another example, following the method described in Example 12, human skin fibroblasts may be pretreated for 2hours with a serial dilution of a test compounds, for example a compound comprising an S1 ligand, prior to stimulation with a STING agonist (e.g. 300 nM GSK STING agonist). Supernatants may then be harvested after STING agonist stimulation (e.g. after 20 h stimulation). IFN-a/b may be measured in the supernatants using HEK-Blue IFN-α/β bioassay (Invivogen) to determine a half-maximal inhibitory concentration of a test compound.
# as §1, §2
# In Figure 10A, HFF-1 cells were treated with 5 µM of compounds A11, A25, A26, or A30, or 0.5 µM STING antagonist control for 15 min followed prior to addition of 300 nM diABZI and incubation for 2 h or 5 h. The cells were lysed and analysed on WB. As additional controls, cells were left untreated (UT), treated with Lipofectamine (Lipo control) or with compounds A26 or A30 as single agent. The WB membrane was probed for p-STING, STING, p-IRF3, p-TBK1, and Vinculin.
# as §3
# [6] = 5 µM compound 1 to 2 hours before, simultaneously with, or 15 minutes after 0.3 µM diABZI c3
SMILES,LC3B lipidation (STING [1]),P-TBK1 (STING [1]),P-STING (STING [1]),IFN media concentration (STING [2]; [6]),secretion of Functional Type I IFN (STING [2]),secretion of CXCL10 (STING [2]),"STING, TBK1 and IRF3 phosphorylation (STING [3])","STING, TBK1 and IRF1 phosphorylation (STING [4])","phosphorylation of STING, IRF1 or TBK1 (STING [5])","CXCL10 media concentration (STING [2]; 5 µM compound before, simultaneously with, or after diABZI c3, filled bars) [pg/mL]",CXCL10 media concentration (STING [2]; cells treated with diABZI c3 alone),IFN media concentration (STING [2]; cells treated with only diABZI c3)
"CCn1nc(C)cc1C(=O)N=c1n(C)c2cc(C(N)=O)ccc2n1CCC(CCn1c(=NC(=O)c2cc(C)nn2CC)n(C)c2cc(C(N)=O)ccc21)OCC(=O)N1CCc2cc(OC)ccc2C1 (stereo not drawn) [A9, 1-(5-{5-Carbamoyl-2-[(1-ethyl-3-methyl-5-pyrazolyl)carbonylimino]-3-methyl-2,3-dihydro-1H-1,3-benzimidazol-1-yl}-3-[2-(6-methoxy-1,2,3,4-tetrahydro-2-isoquinolyl)-2-oxoethoxy]pentyl)-2-[(1-ethyl-3-methyl-5-pyrazolyl)carbonylimino]-3-methyl-2,3-dihydro-1H-1 ,3-benzimidazole-5-carboxamide]",reduced LC3B lipidation; also recorded: decrease in LC3B lipidation,reduced P-TBK1 intensity,reduced intensity; also recorded: decrease in P-STING,~ 100 U/mL,inhibits secretion,inhibits secretion,,,,,,
"CCn1nc(C)cc1C(=O)N=c1n(C)c2cc(C(N)=O)ccc2n1CCC(CCn1c(=NC(=O)c2cc(C)nn2CC)n(C)c2cc(C(N)=O)ccc21)OCC(=O)N1CCC[C@H]1c1cccc(OC)c1 (stereo partly drawn) [A11, 1-(3-{2-[(S)-2-(3-Methoxyphenyl)-1-pyrrolidinyl]-2-oxoethoxy}-5-{5-carbamoyl-2-[(1-ethyl-3-methyl-5-pyrazolyl)carbonylimino]-3-methyl-2,3-dihydro-1H-1,3-benzimidazol-1-yl}pentyl)-2-[(1-ethyl-3-methyl-5-pyrazolyl)carbonylimino]-3-methyl-2,3-dihydro-1H-1,3-benzimidazole-5-carboxamide]",reduced LC3B lipidation,reduced P-TBK1 intensity,reduced intensity; also recorded: decrease in P-STING,-10 - 20 U/mL,inhibits secretion,inhibits secretion,"lower; also recorded: inhibited STING, IRF3 and TBK1 phosphorylation and activation","lower; also recorded: inhibited STING, IRF3 and TBK1 phosphorylation and activation","do not induce STING, IRF3 or TBK1 phosphorylation and activation alone",-10 to 20,,
"CCn1nc(C)cc1C(=O)N=c1n(C)c2cc(C(N)=O)ccc2n1CCC(CCn1c(=NC(=O)c2cc(C)nn2CC)n(C)c2cc(C(N)=O)ccc21)OCC(=O)N1CCC[C@H]1c1ccccc1 (stereo partly drawn) [A25, 1-(3-{2-[(S)-2-Phenyl-1-pyrrolidinyl]-2-oxoethoxy}-5-{5-carbamoyl-2-[(1-ethyl-3-methyl-5-pyrazolyl)carbonylimino]-3-methyl-2,3-dihydro-1H-1,3-benzimidazol-1-yl}pentyl)-2-[(1-ethyl-3-methyl-5-pyrazolyl)carbonylimino]-3-methyl-2,3-dihydro-1H-1,3-benzimidazole-5-carboxamide]",,,,,,,lower,lower,"do not induce STING, IRF3 or TBK1 phosphorylation and activation alone",,,
"CCn1nc(C)cc1C(=O)N=c1n(C)c2cc(C(N)=O)ccc2n1CCC(CCn1c(=NC(=O)c2cc(C)nn2CC)n(C)c2cc(C(N)=O)ccc21)OCC(=O)N1CCC[C@H]1C(=O)N1CCc2cc(OC)ccc2C1 (stereo partly drawn) [A26, 1-[3-(2-{(S)-2-[(6-Methoxy-1,2,3,4-tetrahydro-2-isoquinolyl)carbonyl]-1-pyrrolidinyl}-2-oxoethoxy)-5-{5-carbamoyl-2-[(1-ethyl-3-methyl-5-pyrazolyl)carbonylimino]-3-methyl-2,3-dihydro-1H-1,3-benzimidazol-1-yl}pentyl]-2-[(1-ethyl-3-methyl-5-pyrazolyl)carbonylimino]-3-methyl-2,3-dihydro-1H-1,3-benzimidazole-5-carboxamide]",,,,,,,"lower; also recorded: inhibited STING, IRF3 and TBK1 phosphorylation and activation","lower; also recorded: inhibited STING, IRF3 and TBK1 phosphorylation and activation","do not induce STING, IRF3 or TBK1 phosphorylation and activation alone",,,
"CCn1nc(C)cc1C(=O)N=c1n(C)c2cc(C(N)=O)ccc2n1CCC(CCn1c(=NC(=O)c2cc(C)nn2CC)n(C)c2cc(C(N)=O)ccc21)OCC(=O)N1CCOC[C@@H]1c1ccccc1 (stereo partly drawn) [A30, 1-(3-{2-[(S)-3-Phenyl-4-morpholinyl]-2-oxoethoxy}-5-{5-carbamoyl-2-[(1-ethyl-3-methyl-5-pyrazolyl)carbonylimino]-3-methyl-2,3-dihydro-1H-1,3-benzimidazol-1-yl}pentyl)-2-[(1-ethyl-3-methyl-5-pyrazolyl)carbonylimino]-3-methyl-2,3-dihydro-1H-1,3-benzimidazole-5-carboxamide]",,,,,,,"lower; also recorded: inhibited STING, IRF3 and TBK1 phosphorylation and activation","lower; also recorded: inhibited STING, IRF3 and TBK1 phosphorylation and activation","do not induce STING, IRF3 or TBK1 phosphorylation and activation alone",,,
"CCn1nc(C)cc1C(=O)Nc1nc2cc(C(N)=O)cc(OC)c2n1C/C=C/Cn1c(NC(=O)c2cc(C)nn2CC)nc2cc(C(N)=O)cc(OCCCN3CCOCC3)c21 [diABZI c3, reference compound]",,,,,,,,,,,~ 60 pg/mL,~ 200 U/mL and ~ 100 U/mL
